Patent US20230338340A1, “Methods of Treating Cystic Fibrosis” (The Trustees of Dartmouth College, priority 2020, published 2023)
pIC50: −log10 of the molar value.

Biological target: T1, Human-Dab2-DH (Homo sapiens, UniProt P98082)
T1 construct: fused on or other part: N-terminal 10xHis tag with a 3C protease site, cleaved off unless otherwise indicated
T1 sequence (P98082 33-178 limits assumed): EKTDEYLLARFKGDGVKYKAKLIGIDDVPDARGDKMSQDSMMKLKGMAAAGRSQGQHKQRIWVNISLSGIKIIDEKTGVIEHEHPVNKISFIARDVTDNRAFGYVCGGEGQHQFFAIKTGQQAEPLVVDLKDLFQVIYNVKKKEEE
Assay: Dab2 FP competition assay via HTS
Format: binding
Conditions: not given
Description: CALP and/or Dab2 inhibition assays were performed in biochemical “mix-and-measure” format in order to evaluate the effects on activation and inhibition of CALP and/or Dab2 by the compounds of the disclosure. Brief assay procedure is provided below. Unless otherwise specified, all of the compounds were obtained from commercial sources.
Dab-2 inhibitors were also identified by FP competition assays via HTS. Human-Dab2-DH, residues 31-191 (Uniprot: P98082), and trDab2-DH (residues 33-178) was subcloned into the pET16b vector via PCR utilizing the restriction enzyme sites of Xhol and BamHI. The construct was designed with a 3C protease cleavage site directly upstream and in-frame with the protein coding sequence. DNA was sequence verified. (0.1 mM) IPTG was used to induce protein expression in E. coli BL21(DE3)RIL cells, after reaching an O.D. of […]. […] Followed by 3C cleavage of the 10×His tag (unless otherwise indicated), and a second nickel affinity column to remove the 3C protease and excess tag. Dab2-DH was dialyzed into FP storage buffer (25 mM Tris pH 8.0, 150 mM NaCl, 0.1 mM TCEP, and 0.02% sodium azide). Fluorescent reporter peptides, TIVR*STA02 (TMR*-[…]) and TMR*STA03 (TMR*-[…]), were purchased commercially with the following sequence where TMR* denotes a N-terminal tetramethylrhodamine group coupled via an aminohexanoic acid linker. An unlabled positive control peptide STA02 ([…]) was also purchased commercially. Inhibitors of Dab2-DH were identified from a variety of sources with various protocols outlined below.
For screens conducted at the Novartis Institutes for BioMedical Research FAST Lab, single-dose HTS assays were performed with libraries comprising ˜52,000 compounds at 20 μM doses. Experiments were conducted as described for screens at the University of Pittsburgh Lab and Drug Discovery Institute, except that Dab2-DH, not trDab2-DH, was used as the protein source.
For screens conducted at the Broad Institute, compound transfers were done using a 384-well pin tool equipped with 100 nL hydrophobic surface coated pins. 100 nL of DMSO (negative control), STA02 (positive control), or library compounds were dispensed into 20 μL of protein (200 nM) and reporter (F*-STA02, 30 nM) mixture with 0.1 mg/ml mouse IgG and 0.5 mM Thesit. Final concentrations in the mixture were DMSO ([…]), STA02 (20 μM), and compounds (18 μM). Plates were incubated for 35-45 minutes before measuring polarization. Compounds were tested in duplicates on two separate plates. Positive and negative controls were included in each individual plate.
For experiments conducted at the University of Pittsburgh Lab and Drug Discovery Institute, single-dose HTS assays were performed with a library containing ˜220,000 compounds. On the day of screening, a master mix of equal parts trDab2-DH (900 nM) and TMP-STA03 (90 nM) was prepared. Compound plates containing assay ready 2 μL aliquots of a 1 mM stock solution in DMSO were thawed, reconstituted in FP buffer to a concentration of 30 μM in 3% DMSO, and five μL transferred to low volume assay plates using a Perkin Elmer MDT. Ten μL of master mix were added by a Microflo bulk liquid dispenser (Biotek, Winooski, VT) and processed as described in the general protocol above. Each plate contained 32 wells of positive (Dab2-DH+probe+DMSO) and negative (Dab2-DH+probe +10 μM STA03) controls. Plates were read at 1.5-h and 4-h on the Envision multilabel reader.

| Compound | pIC50 |
| --- | --- |
| COc1c(O)c2c(=O)cc(OC)c3c4c(OC)cc(=O)c5c(O)c(OC)c(CC(C)OC(=O)c6ccccc6)c(c(c1CC(C)OC(=O)Oc1ccc(O)cc1)c23)c54 (stereo not drawn) [Example 20, 1-(3,10-dihydroxy-12-(2-(((4-hydroxyphenoxy)carbonyl)oxy)propyl)-2,6,7,11-tetramethoxy-4,9-dioxo-4,9-dihydroperylen-1-yl)propan-2-yl benzoate] | 6.29 |
| CN(C)[C@@H]1C(=O)C(C(N)=O)=C(O)[C@@]2(O)C(=O)C3=C(O)c4c(O)cccc4[C@@](C)(O)[C@H]3[C@H](O)[C@@H]12 [Example 30, (4S,4aR,5S,5aR,6S,12aR)-4-(dimethylamino)-1,5,6,10,11,12a-hexahydroxy-6-methyl-3,12-dioxo-3,4,4a,5,5a,6,12,12a-octahydrotetracene-2-carboxamide] | 5.22 |

Same assay, conditions: at Cmax; cells printed with %

| Inhibitory activity Dab2 at Cmax | Compound |
| --- | --- |
| ~−95% | CC1(C)Cc2ccccc2-c2n[nH]c(=S)n21 [Example 13, 5,5-dimethyl-5,6-dihydro-[1,2,4]triazolo[3,4-a]isoquinoline-3(2H)-thione] |

Same assay, conditions: read-out: Inhibitory activity Dab2 IC50

| Compound | pIC50 |
| --- | --- |
| CC(C)c1cc2c(c(O)c1O)C13CCCC(C)(C)C1CC2OC3=O (stereo not drawn) [Example 16, 5,6-dihydroxy-7-isopropyl-1,1-dimethyl-1,3,4,9,10,10a-hexahydro-2H-9,4a-(epoxymethano)phenanthren-12-one] | 5.16 |
| O=C1C=C(O)c2c(O)cc(O)cc2C1=O [Example 17, 4,5,7-trihydroxynaphthalene-1,2-dione] | 5.08 |
| CC(=O)C1=C(O)[C@@]2(O)C(=O)c3c(c(C)c4ccc(C)c(O)c4c3O)C[C@H]2[C@@H](N)C1=O [Example 18, (1R,4aR,12aS)-3-acetyl-1-amino-4,4a,6,7-tetrahydroxy-8,11-dimethyl-12,12a-dihydrotetracene-2,5(1H,4aH)-dione] | 5.05 |
| COC1=CC(=O)C(O)=C/C1=C\C=C\c1ccccc1 [Example 19, (E)-2-hydroxy-5-methoxy-4-((E)-3-phenylallylidene)cyclohexa-2,5-dien-1-one] | 5.11 |
| COc1ccc(C(=O)C(=O)Nc2ccccc2)c(O)c1 [Example 21, 2-(2-hydroxy-4-methoxyphenyl)-2-oxo-N-phenylacetamide] | 6.03 |
| Cc1cc(O)c(O)c(Oc2cc(C)cc(O)c2O)c1 [Example 22, 6,6′-oxybis(4-methylbenzene-1,2-diol)] | 6.11 |
| Cc1cc(O)c(Oc2cc(C)cc(O)c2O)c(O)c1 [Example 23, 3-(2,6-dihydroxy-4-methylphenoxy)-5-methylbenzene-1,2-diol] | 6.05 |
| CC1=C(O)C(=O)C=C2C1=CC=C1[C@@]2(C)CC[C@@]2(C)[C@@H]3C[C@](C)(C(=O)O)CC[C@]3(C)CC[C@]12C [Example 24, (2R,4aS,6aS,12bR,14aS,14bR)-10-hydroxy-2,4a,6a,9,12b,14a-hexamethyl-11-oxo-1,2,3,4,4a,5,6,6a,11,12b,13,14,14a,14b-tetradecahydropicene-2-carboxylic acid] | 6.18 |
| O=C(/C=C/c1ccc(O)c(O)c1)OC(Cc1ccc(O)c(O)c1)C(=O)O (stereo not drawn) [Example 25, (E)-3-(3,4-dihydroxyphenyl)-2-((3-(3,4-dihydroxyphenyl)acryloyl)oxy)propanoic acid] | 5.49 |
| Cc1occ2c1C(=O)c1c(O)ccc(O)c1C2 [Example 26, 5,8-dihydroxy-3-methylnaphtho[2,3-c]furan-4(9H)-one] | 6.16 |

Second part, the compound after the results:

| pIC50 | Compound |
| --- | --- |
| 5.41 | CC1CCCCCCCCCC(OC(=O)CCC(=O)O)C(=O)/C=C/C(=O)O1 (stereo not drawn) [Example 27, (E)-4-((16-methyl-2,5-dioxooxacyclohexadec-3-en-6-yl)oxy)-4-oxobutanoic acid] |
| 6.41 | COC(=O)C1=COC(OC2OC(CO)C(O)C(O)C2O)C2C(CO)=CCC12O (stereo not drawn) [Example 28, methyl 4a-hydroxy-7-(hydroxymethyl)-1-((3,4,5-trihydroxy-6-(hydroxymethyl)tetrahydro-2H-pyran-2-yl)oxy)-1,4a,5,7a-tetrahydrocyclopenta[c]pyran-4-carboxylate] |
| 5.03 | CC[N+](C)(CC)CCC[n+]1c(-c2ccccc2)c2cc(N)ccc2c2ccc(N)cc21 [Example 29, 3,8-diamino-5-(3-(diethyl(methyl)ammonio)propyl)-6-phenylphenanthridin-5-ium bromide] |
| 5.27 | CC(C)c1cc2c(c(O)c1O)[C@@]13CCCC(C)(C)[C@@H]1C[C@@H]2OC3=O [Example 31, (4aR,9S,10aS)-5,6-dihydroxy-7-isopropyl-1,1-dimethyl-1,3,4,9,10,10a-hexahydro-2H-9,4a-(epoxymethano)phenanthren-12-one] |
| 5.28 | C=C1C(=O)OC2C(=O)OC(CCCCCCCCCC)C12 (stereo not drawn) [Example 32, 4-decyl-3-methylenedihydrofuro[3,4-b]furan-2,6(3H,4H)-dione] |
| 5.10 | CC1OC2CC(=O)OC2C2=C1C(=O)c1c(O)cccc1C2=O (stereo not drawn) [Example 33, 7-hydroxy-5-methyl-3,3a,5,11b-tetrahydro-2H-benzo[g]furo[3,2-c]isochromene-2,6,11-trione] |
| 5.52 | O=C1c2c(O)c(Cl)cc3c2[C@@]2(Oc4ccc(O)c5c4[C@]3(O2)[C@@H]2O[C@@H]2C5=O)[C@@H]2O[C@H]12 [Example 34, (1aR,1bS,5aS,6aR,6bS,11aS)-3-chloro-4,10-dihydroxy-1a,5a,6a,11a-tetrahydro-5H,11H-1b,6b-epoxyoxireno[2′,3′:2,3]naphtho[1,8-bc]oxireno[2′,3′:2,3]naphtho[1,8-ef]oxepine-5,11-dione] |
| 5.93 | COc1c(O)cc(C(C)C(C)=O)c(O)c1OC (stereo not drawn) [Example 35, 3-(2,5-dihydroxy-3,4-dimethoxyphenyl)butan-2-one] |
